Data from publication PMC11480361, “Design of a Cereblon construct for crystallographic and biophysical studies of protein degraders” (Nature Communications, 2024).
Values joined by “and” are separate entries in the source; they are usually repeats but may differ in a detail not shown here. Equal entries are not always repeated.

Experiments:
CRBN^midi [1] = molecular target: T1, CRBN^midi (Homo sapiens, UniProt Q96SW2, C287N/C343E/C78I/DEL188-248/G302D/I92V/INS187GSG/K116N/L342R/L423I/Q134E/R283W/T359I/V293S); experiment: Thermal denaturation (turbidity, Prometheus Panta) of CRBN^midi +/- binders, Fig. 2f; assay type: binding; set-up: First derivative: unit not given here; conditions: for increase of Tm / denaturation temperature of CRBN^midi / melting temperature (Tm) of CRBN^midi in presence of binder: 100 µM binder; for increase of Tm / denaturation temperature of CRBN^midi: versus apo; for melting temperature (Tm) of CRBN^midi in presence of binder: apo Tm 44.5 °C; for First derivative: thermal denaturation trace
T1 construct: amino acids 41-187 followed by a Gly-Ser-Gly linker and amino acids 249-426; His6 (N, cleaved yes); made in house; host or cells: E. coli BL21(DE3)
T1 sequence (Q96SW2 with tags, fused parts or gaps with the stated changes limits assumed): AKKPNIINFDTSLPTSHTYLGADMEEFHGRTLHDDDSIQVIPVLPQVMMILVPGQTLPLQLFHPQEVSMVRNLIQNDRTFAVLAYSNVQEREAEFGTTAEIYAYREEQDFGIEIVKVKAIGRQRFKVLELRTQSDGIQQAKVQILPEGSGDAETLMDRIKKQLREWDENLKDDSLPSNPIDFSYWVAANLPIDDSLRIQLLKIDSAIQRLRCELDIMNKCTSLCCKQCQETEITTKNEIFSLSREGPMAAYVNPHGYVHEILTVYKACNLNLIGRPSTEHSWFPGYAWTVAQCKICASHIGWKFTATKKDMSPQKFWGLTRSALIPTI
Protocol: Protein aggregation was assessed, and turbidity values were calculated by the PR.Panta control software (NanoTemper Technologies). First derivative curves were plotted using Prism software (GraphPad version 10).

CRBN^midi [2] = molecular target: T1, CRBN^midi; experiment: SEC-SAXS of CRBN^midi with binders (radius of gyration); conditions: for RG of ligand-bound CRBN^midi: 200 µM ligand, apo 26.73 Å; for Rg, P(r) Analysis from AUTOGNOM / dmax, P(r) analysis / Rg, Guinier analysis: Supplementary Table 3; for Rg, P(r) Analysis from AUTOGNOM: apo 26.91 ± 0.04; for dmax, P(r) analysis: apo 172.46; for Rg, Guinier analysis: binder 400 µM (mezigdomide, lenalidomide) or 200 µM (Boc-VcN, Boc-AcQ), apo 26.73 ± 0.06; on Rg, Guinier analysis: values in Å; on Rg, P(r) Analysis from AUTOGNOM: values in Å; on dmax, P(r) analysis: values in Å
Protocol: Frames from SEC-SAXS that corresponded to the main protein peak, were merged using Chromixs[61] and analyzed using the ATSAS (version 3.2.1) package. Radii of gyration and molecular mass were extrapolated from the Guinier plot using Primus. Pairwise-distance distributions were calculated using GNOM[63]. The dimensionless Kratky plot[49] was obtained by manually plotting (qRg)^2I(q)/I0 against qRg.
The open conformation model was obtained by homology modelling using the SWISS-MODEL webserver (accessed April 18th 2023)[65] with the cryo-EM structure of apo-CRBN (PDB ID: 8CVP)[25] as the input structure.

[3] = T[°C] 86.7721 lenalidomide, 86.7698 Boc-VcN, 86.7691 Boc-AcQ
[4] = T[°C] 86.8918 lenalidomide, 86.8895 Boc-VcN, 86.8888 Boc-AcQ
[5] = T[°C] 87.0114 lenalidomide, 87.0091 Boc-VcN, 87.0084 Boc-AcQ
[6] = T[°C] 87.1311 lenalidomide, 87.1288 Boc-VcN, 87.1281 Boc-AcQ
[7] = T[°C] 87.2507 lenalidomide, 87.2484 Boc-VcN, 87.2477 Boc-AcQ
[8] = T[°C] 87.3704 lenalidomide, 87.3681 Boc-VcN, 87.3674 Boc-AcQ
[9] = T[°C] 87.49 lenalidomide, 87.4877 Boc-VcN, 87.487 Boc-AcQ
[10] = T[°C] 87.6097 lenalidomide, 87.6074 Boc-VcN, 87.6067 Boc-AcQ
[11] = T[°C] 87.7294 lenalidomide, 87.727 Boc-VcN, 87.7263 Boc-AcQ
[12] = T[°C] 87.849 lenalidomide, 87.8467 Boc-VcN, 87.846 Boc-AcQ
[13] = T[°C] 87.9687 lenalidomide, 87.9664 Boc-VcN, 87.9656 Boc-AcQ
[14] = T[°C] 88.0883 lenalidomide, 88.086 Boc-VcN, 88.0853 Boc-AcQ
[15] = T[°C] 88.208 lenalidomide, 88.2057 Boc-VcN, 88.205 Boc-AcQ
[16] = T[°C] 88.3276 lenalidomide, 88.3253 Boc-VcN, 88.3246 Boc-AcQ
[17] = T[°C] 88.4473 lenalidomide, 88.445 Boc-VcN, 88.4443 Boc-AcQ
[18] = T[°C] 88.567 lenalidomide, 88.5646 Boc-VcN, 88.5639 Boc-AcQ
[19] = T[°C] 88.6866 lenalidomide, 88.6843 Boc-VcN, 88.6836 Boc-AcQ
[20] = T[°C] 88.8063 lenalidomide, 88.8039 Boc-VcN, 88.8032 Boc-AcQ
[21] = T[°C] 88.9259 lenalidomide, 88.9236 Boc-VcN, 88.9229 Boc-AcQ
[22] = T[°C] 89.0456 lenalidomide, 89.0432 Boc-VcN, 89.0425 Boc-AcQ
[23] = T[°C] 89.1653 lenalidomide, 89.1629 Boc-VcN, 89.1622 Boc-AcQ
[24] = T[°C] 89.2849 lenalidomide, 89.2825 Boc-VcN, 89.2818 Boc-AcQ
[25] = T[°C] 89.4046 lenalidomide, 89.4022 Boc-VcN, 89.4015 Boc-AcQ
[26] = T[°C] 89.5242 lenalidomide, 89.5218 Boc-VcN, 89.5211 Boc-AcQ
[27] = T[°C] 89.6439 lenalidomide, 89.6415 Boc-VcN, 89.6408 Boc-AcQ
[28] = T[°C] 89.7635 lenalidomide, 89.7612 Boc-VcN, 89.7604 Boc-AcQ
[29] = T[°C] 89.8832 lenalidomide, 89.8808 Boc-VcN, 89.8801 Boc-AcQ
[30] = T[°C] 90.0028 lenalidomide, 90.0005 Boc-VcN, 89.9997 Boc-AcQ

Row | increase of Tm / denaturation temperature of CRBN^midi (CRBN^midi [1]) [°C] | melting temperature (Tm) of CRBN^midi in presence of binder (CRBN^midi [1]) [°C] | First derivative (CRBN^midi [1]; [3]) | First derivative (CRBN^midi [1]; [4]) | First derivative (CRBN^midi [1]; [5]) | First derivative (CRBN^midi [1]; [6]) | First derivative (CRBN^midi [1]; [7]) | First derivative (CRBN^midi [1]; [8]) | First derivative (CRBN^midi [1]; [9]) | First derivative (CRBN^midi [1]; [10]) | First derivative (CRBN^midi [1]; [11]) | First derivative (CRBN^midi [1]; [12]) | First derivative (CRBN^midi [1]; [13]) | First derivative (CRBN^midi [1]; [14]) | First derivative (CRBN^midi [1]; [15]) | First derivative (CRBN^midi [1]; [16]) | First derivative (CRBN^midi [1]; [17]) | Rg, P(r) Analysis from AUTOGNOM (CRBN^midi [2]) [Å] | dmax, P(r) analysis (CRBN^midi [2]) [Å] | Rg, Guinier analysis (CRBN^midi [2]) [Å] | SMILES | also measured
1 | 8.3 | 52.8 | -0.02853 | -0.0315 | -0.03497 | -0.03881 | -0.04291 | -0.04716 | -0.05142 | -0.05268 | -0.05356 | -0.05436 | -0.05515 | -0.0559 | -0.05659 | -0.05718 | -0.05764 | 24.25 ± 0.04 | 146.92 | 24.29 ± 0.05 | C[C@H](NC(=O)OC(C)(C)C)C(=O)N[C@H]1CCC(=O)NC1=O [Boc-AcQ, tert-butyl ((S)-1-(((S)-2,6-dioxopiperidin-3-yl)amino)-1-oxopropan-2-yl)carbamate] | First derivative (CRBN^midi [1]; [18]): -0.05798; First derivative (CRBN^midi [1]; [19]): -0.05817; First derivative (CRBN^midi [1]; [20]): -0.05821; First derivative (CRBN^midi [1]; [21]): -0.0581; First derivative (CRBN^midi [1]; [22]): -0.05783; First derivative (CRBN^midi [1]; [23]): -0.05741; First derivative (CRBN^midi [1]; [24]): -0.05684; First derivative (CRBN^midi [1]; [25]): -0.05611; First derivative (CRBN^midi [1]; [26]): -0.05525; First derivative (CRBN^midi [1]; [27]): -0.05424; First derivative (CRBN^midi [1]; [28]): -0.05311; First derivative (CRBN^midi [1]; [29]): -0.05186; First derivative (CRBN^midi [1]; [30]): -0.0505; RG of ligand-bound CRBN^midi (CRBN^midi [2]): 24.29 Å and 24.3 Å
2 | 11.1 | 55.6 | -0.05947 | -0.05823 | -0.05736 | -0.05707 | -0.05755 | -0.05896 | -0.06138 | -0.06805 | -0.07618 | -0.08482 | -0.09355 | -0.1023 | -0.1109 | -0.1196 | -0.1282 | 22.93 ± 0.03 | 137.14 | 23.41 ± 0.05 | CC(C)[C@H](NC(=O)OC(C)(C)C)C(=O)NC1CC(=O)NC1=O (stereo partly drawn) [Boc-VcN, Tert-butyl ((2S)-1-((2,5-dioxopyrrolidin-3-yl)amino)-3-methyl-1-oxobutan-2-yl)carbamate] | First derivative (CRBN^midi [1]; [18]): -0.1368; First derivative (CRBN^midi [1]; [19]): -0.1455; First derivative (CRBN^midi [1]; [20]): -0.1543; First derivative (CRBN^midi [1]; [21]): -0.1632; First derivative (CRBN^midi [1]; [22]): -0.1723; First derivative (CRBN^midi [1]; [23]): -0.1815; First derivative (CRBN^midi [1]; [24]): -0.191; First derivative (CRBN^midi [1]; [25]): -0.2007; First derivative (CRBN^midi [1]; [26]): -0.2106; First derivative (CRBN^midi [1]; [27]): -0.2208; First derivative (CRBN^midi [1]; [28]): -0.2313; First derivative (CRBN^midi [1]; [29]): -0.2421; First derivative (CRBN^midi [1]; [30]): -0.2531; RG of ligand-bound CRBN^midi (CRBN^midi [2]): 23.41 Å and 23.4 Å

Row | SMILES | increase of Tm / denaturation temperature of CRBN^midi (CRBN^midi [1]) [°C] | melting temperature (Tm) of CRBN^midi in presence of binder (CRBN^midi [1]) [°C] | First derivative (CRBN^midi [1]; [3]) | First derivative (CRBN^midi [1]; [4]) | First derivative (CRBN^midi [1]; [5]) | First derivative (CRBN^midi [1]; [6]) | First derivative (CRBN^midi [1]; [7]) | First derivative (CRBN^midi [1]; [8]) | First derivative (CRBN^midi [1]; [9]) | First derivative (CRBN^midi [1]; [10]) | First derivative (CRBN^midi [1]; [11]) | First derivative (CRBN^midi [1]; [12]) | First derivative (CRBN^midi [1]; [13]) | First derivative (CRBN^midi [1]; [14]) | First derivative (CRBN^midi [1]; [15]) | First derivative (CRBN^midi [1]; [16]) | First derivative (CRBN^midi [1]; [17]) | Rg, P(r) Analysis from AUTOGNOM (CRBN^midi [2]) [Å] | dmax, P(r) analysis (CRBN^midi [2]) [Å] | Rg, Guinier analysis (CRBN^midi [2]) [Å] | also measured
3 | N#Cc1ccc(N2CCN(Cc3ccc(COc4cccc5c4CN([C@H]4CCC(=O)NC4=O)C5=O)cc3)CC2)c(F)c1 [mezigdomide, Mezigdomide] | – | – | – | – | – | – | – | – | – | – | – | – | – | – | – | – | – | 22.45 ± 0.04 | 145.02 | 22.79 ± 0.06 | –
